Each compound was assayed on β-catenin-TCF-mediated reporter transcription activity in Colo 205 cells (assay: Colo 205 reporter assay (TCF/LEF luciferase)). Settings: Colo 205 TCF/LEF luciferase reporter, five hours after addition of compound; read-out: TCF reporter Colo205 IC50.
Assay type: cell-based
Method in brief: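 Luciferase signal from a TCF/LEF-driven reporter, stably integrated in Colo 205 colon cancer cells, was measured 5 h after compound addition.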
In the case of `Cc1nc(N[C@H]2C[C@@H](Cn3nccc3C(F)(F)F)C2)nc2c1NC(=O)[C@H](CO)N2C` [Compound 743, (S)-7-(hydroxymethyl)-4,8-dimethyl-2-(((1s,3R)-3-((5-(trifluoromethyl)-1H-pyrazol-1-yl)methyl)cyclobutyl)amino)-7,8-dihydropteridin-6(5H)-one], the IC50 is reported as 1000 to 5000 nM.
`CC[C@H]1C(=O)Nc2c(C)nc(NCc3cnn(Cc4ccc(OC(F)F)nc4)c3)nc2N1C` [Compound 417, (7S)-2-(((1-((6-(difluoromethoxy)pyridin-3-yl)methyl)-1H-pyrazol-4-yl)methyl)amino)-7-ethyl-4,8-dimethyl-7,8-dihydropteridin-6(511)-one] was tested, and the IC50 was less than 300 nM.

Same assay, conditions: Homo sapiens, COLO 205, 5 h, Colo 205 TCF/LEF luciferase reporter, five hours after addition of compound; read-out: TCF reporter Colo205 IC50
In the case of `Cc1nc(N[C@H]2C[C@H](Oc3ccc(F)c(F)c3F)C2)nc2c1N(C)C(=O)[C@H](C)N2C` [Compound 293, (7S)-4,5,7,8-tetramethyl-2-((trans-3-(2,3,4-trifluorophenoxy)cyclobutyl)-amino)-7,8-dihydropteridin-6(5H)-one], the IC50 is reported as less than 300 nM.
Work on `Cc1nc(NC2CN(C(=O)c3ccc(OCC(F)(F)F)nc3)C2)nc2c1NC(=O)[C@H](C(C)C)N2C` [Compound 615, (S)-7-isopropyl-4,8-dimethyl-2-((1-(6-(2,2,2-trifluoroethoxy)nicotinoyl)azetidin-3-yl)amino)-7,8-dihydropteridin-6(5H)-one] yielded an IC50 of 300 to 1000 nM.
Work on `Cc1nc(N[C@H]2C[C@@H](COc3ccc(F)nc3)C2)nc2c1NC(=O)[C@H](C)N2C` [Compound 270, (7S)-2-((cis-3-(((6-fluoropyridin-3-yl)oxy)methyl)cyclobutyl)amino)-4,7,8-trimethyl-7,8-dihydropteridin-6(5H)-one] yielded an IC50 of 300 to 1000 nM.
`COc1ccc(Cn2cc(CNc3ncc4c(n3)N(C)[C@@H](C)C(=O)N4)cn2)cc1F` [Compound 148, (7S)-2-(((1-(3-fluoro-4-methoxybenzyl)-1H-pyrazol-4-yl)methyl)amino)-7,8-dimethyl-7,8-dihydropteridin-6(5H)-one] was tested, and the IC50 was 300 to 1000 nM.
Compound `CCn1nc(C(F)(F)F)cc1Cn1cc(CNc2nc(C)c3c(n2)N(C)[C@@H](C)C(=O)N3)cn1` [Compound 189, (7S)-2-(((1-((1-ethyl-3-(trifluoromethyl)-1H-pyrazol-5-yl)methyl)-1H-pyrazol-4-yl)methyl)amino)-4,7,8-trimethyl-7,8-dihydropteridin-6(5H)-one] has an IC50 of less than 300 nM.
`Cc1nc(N[C@H]2C[C@H](Oc3ccc(OCC(F)(F)F)nc3)C2)nc2c1NC(=O)[C@H](C)N2C` [Compound 347, (7S)-4,7,8-trimethyl-2-((trans-3-((6-(2,2,2-trifluoroethoxy)pyridin-3-yl)oxy)cyclobutyl)amino)-7,8-dihydropteridin-6(5H)-one] gave an IC50 of less than 300 nM.
With `[2H]C([2H])([2H])c1nc(NCc2cnn(Cc3ccc(C(F)(F)F)nc3)c2)nc2c1NC(=O)[C@H](C)N2C` [Compound 494, (7S)-7,8-dimethyl-4-(methyl-d3)-2-(((1-((6-(trifluoromethyl)pyridin-3-yl)methyl)-1H-pyrazol-4-yl)methyl)amino)-7,8-dihydropteridin-6(5H)-one] the IC50 was less than 300 nM.
Compound `Cc1nc(NCc2cnn(Cc3ccc(C(C)(C)C)nc3)c2)nc2c1NC(=O)[C@H](C)N2C` [Compound 211, (7S)-2-(((1-((6-(tert-butyl)pyridin-3-yl)methyl)-1H-pyrazol-4-yl)methyl)amino)-4,7,8-trimethyl-7,8-dihydropteridin-6(5H)-one] has an IC50 of 300 to 1000 nM.
`COc1cc(F)ccc1O[C@H]1C[C@H](Nc2nc(C)c3c(n2)N(C)[C@@H](C)C(=O)N3)C1` [Compound 344, (7S)-2-((trans-3-(4-fluoro-2-methoxyphenoxy)cyclobutyl)amino)-4,7,8-trimethyl-7,8-dihydropteridin-6(5H)-one] showed an IC50 of 300 to 1000 nM.
`Cc1nc(NCc2cnn(Cc3ccncc3C(F)(F)F)c2)nc2c1NC(=O)[C@H](C)N2C` [Compound 187, (7S)-4,7,8-trimethyl-2-(((1-((3-(trifluoromethyl)pyridin-4-yl)methyl)-1H-pyrazol-4-yl)methyl)amino)-7,8-dihydropteridin-6(5H)-one] showed an IC50 of less than 300 nM.
With `Cc1nc(NCc2cnn(Cc3ccc(OCC(F)(F)F)nc3)c2)nc2c1NC(=O)[C@H](C)N2C` [Compound 390, (7S)-4,7,8-trimethyl-2-(((1-((6-(2,2,2-trifluoroethoxy)pyridin-3-yl)methyl)-1H-pyrazol-4-yl)methyl)amino)-7,8-dihydropteridin-6(5H)-one] the IC50 was less than 300 nM.
With `CC[C@H]1C(=O)Nc2cnc(NCc3cnn(Cc4ccc(C(F)(F)F)nc4)c3)nc2N1C(C)C` [Compound 497, (7S)-7-ethyl-8-isopropyl-2-(((1-((6-(trifluoromethyl)pyridin-3-yl)methyl)-1H-pyrazol-4-yl)methyl)amino)-7,8-dihydropteridin-6(5H)-one] the IC50 was 300 to 1000 nM.
`Cc1nc(NCc2cnn([C@H]3CCN(c4ccc(F)cc4)C3)c2)nc2c1NC(=O)[C@H](C)N2C` [Compound 171, (7S)-2-(((1-((S)-1-(4-fluorophenyl)pyrrolidin-3-yl)-1H-pyrazol-4-yl)methyl)amino)-4,7,8-trimethyl-7,8-dihydropteridin-6(5H)-one] showed an IC50 of less than 300 nM.
`Cc1cc(F)ncc1Cn1cc(CNc2nc(C)c3c(n2)N(C)[C@@H](C)C(=O)N3C)cn1` [Compound 205, (7S)-2-(((1-((6-fluoro-4-methylpyridin-3-yl)methyl)-1H-pyrazol-4-yl)methyl)amino)-4,5,7,8-tetramethyl-7,8-dihydropteridin-6(5H)-one] gave an IC50 of 300 to 1000 nM.
`Cc1nc(N[C@H]2CC[C@@H](Oc3cc(F)c(F)c(F)c3)C2)nc2c1NC(=O)[C@H](C)N2C` (mixture of isomers) [Compound 259, (7S)-4,7,8-trimethyl-2-((cis-3-(3,4,5-trifluorophenoxy)cyclopentyl)amino)-7,8-dihydropteridin-6(5H)-one] gave an IC50 of no less than 5000 nM.
`Cc1nc(NCc2ccc(OCc3ccc(F)cc3)cn2)nc2c1NC(=O)[C@H](C)N2C` [Compound 70, (S)-2-(((5-((4-fluorobenzyl)oxy)pyridin-2-yl)methyl)amino)-4,7,8-trimethyl-7,8-dihydropteridin-6(5H)-one] was tested, and the IC50 was 300 to 1000 nM.
Compound `CCN1C(=O)C(C)(C)N(CC)c2nc(NCc3cnn(Cc4ccc(F)cc4)c3)ncc21` [Compound 230, 5,8-diethyl-2-(((1-(4-fluorobenzyl)-1H-pyrazol-4-yl)methyl)amino)-7,7-dimethyl-7,8-dihydropteridin-6(5H)-one] has an IC50 of 300 to 1000 nM.
`Cc1nc(NCc2cnn(-c3ccc(F)cc3F)c2)nc2c1NC(=O)[C@H](C)N2C` [Compound 98, (7S)-2-(((1-(2,4-difluorophenyl)-1H-pyrazol-4-yl)methyl)amino)-4,7,8-trimethyl-7,8-dihydropteridin-6(5H)-one] showed an IC50 of 1000 to 5000 nM.
In the case of `Cc1nc(N[C@H]2C[C@H](Oc3cncc(C(F)(F)F)c3)C2)nc2c1N(C)C(=O)[C@H](C)N2C` [Compound 314, (7S)-4,5,7,8-tetramethyl-2-((trans-3-((5-(trifluoromethyl)pyridin-3-yl)oxy)cyclobutyl)amino)-7,8-dihydropteridin-6(5H)-one], the IC50 is reported as 300 to 1000 nM.
`COC1(C2C(=O)Nc3c(C)nc(NCc4cnn(Cc5cc(C(F)(F)F)nn5C)c4)nc3N2C)CCC1` (centres unmarked) [Compound 670, 7-(1-methoxycyclobutyl)-4,8-dimethyl-2-(((1-((1-methyl-3-(trifluoromethyl)-1H-pyrazol-5-yl)methyl)-1H-pyrazol-4-yl)methyl)amino)-7,8-dihydropteridin-6(5H)-one] gave an IC50 of less than 300 nM.
With `Cc1nc(N[C@H]2C[C@@H](NC(=O)Nc3ccc(Cl)nc3)C2)nc2c1NC(=O)[C@H](C)N2C` [Compound 462, 1-(6-chloropyridin-3-yl)-3-(cis-3-(((S)-4,7,8-trimethyl-6-oxo-5,6,7,8-tetrahydropteridin-2-yl)amino)cyclobutyl)urea] the IC50 was 1000 to 5000 nM.
`COC1(C2C(=O)Nc3c(C)nc(NCc4cnn(Cc5ccc(C(F)(F)F)nc5)c4)nc3N2C)CCC1` (centres unmarked) [Compound 661, 7-(1-methoxycyclobutyl)-4,8-dimethyl-2-(((1-((6-(trifluoromethyl)pyridin-3-yl)methyl)-1H-pyrazol-4-yl)methyl)amino)-7,8-dihydropteridin-6(5H)-one] showed an IC50 of less than 300 nM.
`Cc1nc(N[C@H]2C[C@@H](Oc3ccc(F)cc3)C2)nc2c1NC(=O)[C@H](C)N2C` [Compound 243, (7S)-2-((cis-3-(4-fluorophenoxy)cyclobutyl)amino)-4,7,8-trimethyl-7,8-dihydropteridin-6(5H)-one] was tested, and the IC50 was 1000 to 5000 nM.
`CCN1C(=O)[C@H](CCO)N(CC)c2nc(NCc3cnn(Cc4cc(F)c(F)c(F)c4)c3)ncc21` [Compound 37, (7S)-5,8-diethyl-7-(2-hydroxyethyl)-2-(((1-(3,4,5-trifluorobenzyl)-1H-pyrazol-4-yl)methyl)amino)-7,8-dihydropteridin-6(5H)-one] showed an IC50 of less than 300 nM.
`Cc1nc(C(=O)N2CC(Nc3nc(C)c4c(n3)N(C)[C@@H](C(C)C)C(=O)N4)C2)co1` [Compound 610, (S)-7-isopropyl-4,8-dimethyl-2-((1-(2-methyloxazole-4-carbonyl)azetidin-3-yl)amino)-7,8-dihydropteridin-6(5H)-one] showed an IC50 of no less than 5000 nM.
Work on `Cc1nc(N[C@H]2C[C@H](Nc3cc(F)c(F)c(F)c3)C2)nc2c1NC(=O)[C@H](C)N2C` [Compound 486, (S)-4,7,8-trimethyl-2-((trans-3-((3,4,5-trifluorophenyl)amino)cyclobutyl)amino)-7,8-dihydropteridin-6(5H)-one] yielded an IC50 of 1000 to 5000 nM.

Same assay, conditions: Homo sapiens, COLO 205, 5 h, R-isomer at C2 (corresponding to C2 S-isomer); Colo 205 TCF/LEF luciferase reporter, 5 h; read-out: TCF reporter Colo205 IC50
`Cc1nc(NCc2cnn(Cc3ccc(Cl)nc3)c2)nc2c1N(C)C(=O)[C@@H](CCO)N2C` [Compound I-1644] was tested, and the IC50 was 1000 to 5000 nM.
With `Cc1nc(NCc2cnn(Cc3ccc(C(F)(F)F)nc3)c2)nc2c1NC(=O)[C@@H](CC(F)(F)F)N2C` [Compound I-1645] the IC50 was 1000 to 5000 nM.
`CC[C@@H]1C(=O)Nc2cnc(NCc3cnn(Cc4ccc(F)cc4)c3)nc2N1C` [Compound I-1634] was tested, and the IC50 was no less than 5000 nM.
In the case of `Cc1nc(NCc2cnn(Cc3ccc(OC(F)F)nc3)c2)nc2c1NC(=O)[C@@H](C(C)C)N2C` [Compound I-1642], the IC50 is reported as 1000 to 5000 nM.

Reference: US20230312587A1, “PTERIDINONE COMPOUNDS AND USES THEREOF” (Vertex Pharmaceutical Incorporated, priority 2018, published 2023)
